Test results reported in patent publication US20210369677A1, “SMALL MOLECULE ACTIVATORS OF POLYCYSTIN-2 (PKD2) AND USES THEREOF” (Northwestern University, priority 2020, published 2021).

Target: T1, polycystin-2 channels (Mus musculus, UniProt O35245, DEL771-772)
T1 construct: the mouse channel orthologue under endogenous expression in the kidney collecting duct; endogenous in cells; host or cells: primary inner medullary collecting duct (pIMCD) cells of ARL13B-EGFP mice
T1 sequence (O35245 with tags, fused parts or gaps DEL771-772): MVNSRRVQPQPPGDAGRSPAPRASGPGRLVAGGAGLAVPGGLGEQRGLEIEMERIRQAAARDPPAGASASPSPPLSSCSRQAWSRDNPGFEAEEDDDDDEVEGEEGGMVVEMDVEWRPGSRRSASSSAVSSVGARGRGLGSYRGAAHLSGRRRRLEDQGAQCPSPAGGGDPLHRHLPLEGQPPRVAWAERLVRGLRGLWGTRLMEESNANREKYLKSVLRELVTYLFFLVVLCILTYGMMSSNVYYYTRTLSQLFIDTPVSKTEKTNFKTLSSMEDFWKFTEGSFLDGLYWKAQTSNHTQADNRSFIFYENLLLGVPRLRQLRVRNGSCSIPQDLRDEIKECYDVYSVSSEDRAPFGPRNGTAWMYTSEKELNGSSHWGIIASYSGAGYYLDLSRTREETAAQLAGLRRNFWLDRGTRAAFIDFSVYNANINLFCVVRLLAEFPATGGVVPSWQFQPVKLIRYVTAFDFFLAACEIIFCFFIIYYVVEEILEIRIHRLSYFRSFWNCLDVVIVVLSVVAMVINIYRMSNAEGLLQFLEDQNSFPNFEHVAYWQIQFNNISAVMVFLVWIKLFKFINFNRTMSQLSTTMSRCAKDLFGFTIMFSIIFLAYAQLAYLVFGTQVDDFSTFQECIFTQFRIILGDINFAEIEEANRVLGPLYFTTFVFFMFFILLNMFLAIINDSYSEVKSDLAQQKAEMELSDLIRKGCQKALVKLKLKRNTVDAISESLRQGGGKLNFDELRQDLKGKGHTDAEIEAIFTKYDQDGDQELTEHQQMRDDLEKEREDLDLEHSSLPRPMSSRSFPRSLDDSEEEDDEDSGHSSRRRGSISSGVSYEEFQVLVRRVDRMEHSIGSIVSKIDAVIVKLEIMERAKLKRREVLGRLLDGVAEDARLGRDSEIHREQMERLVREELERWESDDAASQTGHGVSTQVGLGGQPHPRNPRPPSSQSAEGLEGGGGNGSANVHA
Assay: Inside-out cilia patch of pIMCD cells, calcium opening of polycystin-2 channels
Type: cell-based
Conditions: Pkd2del-Z/delZ mice; read-out: EC50, potency of calcium opening polycystin-2 channels
Description: Cell culture of primary inner medullary collecting duct cells and immortalized cell lines. Primary inner medullary collecting ducts cells (pIMCD) were isolated from WT or Pkd2^del-Z/del-Z mice co-expressing the ARL13B-EGFP cilia reporter using the previously described method (Liu et al., 2018). Briefly, inner medullae were removed from the kidney and disassociated using a Dulbecco's phosphate buffered solution (DPBS) containing 2 mg/ml collagenase A and 1 mg/ml hyaluronidase. After mechanical disassociation on ice, medullary cells were cultured in Dulbecco's modified essential medium (DMEM) supplemented with 10% fetal bovine serum (FBS) and 100 units/ml penicillin/100 μg/ml streptomycin. Cilia were patched from cells within 6 days after isolation and within one passage. HEK PKD2^Null cell lines were generated using the CRISPR/Cas9 gene editing kit available from Addgene and authenticated using PCR analysis, as previously described (Liu et al., 2018). […]
Electrophysiology. The electrophysiologist was blinded by a third party in the laboratory, where test groups were assigned a letter to conceal the genetic identity of the cells being evaluated. […] Ciliary ion currents were recorded using borosilicate glass electrodes polished to resistances of 14-23 MΩ using the cilium patch method previously described (Vien et al., 2020). Single channel currents measured in the inside-out configuration were recorded in symmetrical sodium concentrations. […] Calcium was buffered with 5 EGTA (ethylene glycol-bis(o-aminoethyl ether)-N,N,N′,N′-tetraacetic acid), 5 Na4-BAPTA (Glycine, N, N′-[1,2-ethanediylbis(oxy-2,1-phenylene)]bis[N-(carboxymethyl)]-,tetrasodium) and 0.5 EDTA […]; free calcium was calculated using Maxchilator and titration of 1 M CaCl2) solution (Bers et al., 2010); pH was adjusted to 7.3 using NaOH. […] Whole cell currents used to measure CDD were also recorded in symmetrical sodium concentration, placing the internal recording solution in the pipette electrode and the external recording solution in the bath. […]

**Q.** With `[Ca+2]` [Ca^2+, calcium] as the compound, how does the EC50 read?
**A.** The EC50 was 1400 ± 300 nM.
